# Columns and labels:
# [1] = tested on: adeno-associated virus serotype 9 (AAV 9); test: Crystal formation and average particle size after mixing surfactant-treated AAV solution with tannic acid solution (DLS, microscope); format: physicochemical; conditions: surfactant 0.05% (w/w) in AAV solution (PBS, pH 7.4) + 0.5 mM tannic acid, after about 10 minutes
# Method: The present inventors tried to check the change in AAV stability by treating a surfactant to solve the problem of AAV aggregation when preparing a gene delivery system using AAV. To this end, the effect was verified for various types of surfactants known in the art. More specifically, after mixing 50 uL of 0.5 mM tannic acid solution with 1×108 genome/ul AAV solution in which each of Tween 80, Triton X, CHAPS, cetrimonium bromide (CTAB), and sodium deoxycholate was present in a concentration of 0.05% (w/w) (PBS, pH 7.4), and then after about 10 minutes, the average particle size was measured through dynamic light scattering (DLS), and the formation of crystals that could cause blood vessel clogging was observed under a microscope. At this time, as a condition not treated with a surfactant, 50 uL of a 1×108 genome/ul AAV solution (PBS, pH 7.4) was mixed with 50 uL of 0.5 mM tannic acid solution, and average particle size measurement and microscopic observation were performed in the same manner as above.
# [2] = tested on: adeno-associated virus serotype 9 (AAV 9); test: Crystal formation after mixing FBS with surfactant-containing AAV and tannic acid (microscope); format: physicochemical; conditions: surfactant 0.05% (w/w), 0.5 mM tannic acid, then 50 uL of 10% FBS
# Method: Furthermore, the present inventors have attempted to verify whether the formation of a potential crystal structure that may block blood vessels when mixed with plasma may be suppressed through the treatment of a surfactant additionally. To this end, 50 uL of 0.5 mM tannic acid solution was mixed with 50 uL of 1×108 genome/ul AAV solution (PBS, pH 7.4) containing each of CTAB, Tween 80, and CHAPS in a concentration of 0.05% (w/w), and then about 5 minutes after, 50 uL of 10% FBS solution was mixed and observed whether crystals of 10 μm or larger were formed under a microscope.
# [3] = tested on: adeno-associated virus serotype 9 (AAV 9); test: AAV stability according to surfactant concentration (UV-Vis absorbance 600 nm scattering, microscope); format: physicochemical; conditions: 0.5 mM tannic acid
# Method: 50 uL of 0.5 mM tannic acid solution was mixed with 1×108 genome/ul AAV solution in which Tween 80, a nonionic surfactant, is present in a concentration of 0.2%, 0.05%, 0.0125%, and 0.003% (w/w) (PBS, pH 7.4), respectively, and about 5 minutes after, UV-Vis absorbance in the 600 nm wavelength band was measured for scattering, and crystal formation was observed under a microscope.
# In addition, under conditions in which Triton X, another nonionic surfactant, is present in a concentration of 0.05%, 0.0125, 0.003%, and 0.0008% (w/w), respectively, AAV and tannic acid solutions were mixed in the same method as above, and the same experiment was performed, and the result was observed.
# (§1) 50 uL of 0.5 mM tannic acid solution was mixed with 1×108 genome/ul AAV solution in which the zwitterionic surfactant CHAPS is present in a concentration of 0.4%, 0.1%, 0.025%, 0.006% (w/w) (PBS, pH 7.4), respectively, and after about 5 minutes, UV-Vis absorbance in the 600 nm wavelength band was measured for scattering, and crystal formation was observed under a microscope.
# as §1, with “cationic” for “zwitterionic”, “CTAB” for “CHAPS”
# as §1, with “anionic” for “zwitterionic”, “sodium deoxycholate” for “CHAPS”, “0.2%, 0.05%, 0.0125%, […]” for “0.4%, 0.1%, 0.025%, 0.006%”
# [4] = tested on: adeno-associated virus serotype 9 (AAV 9); test: In vitro stability of particle size over time (DLS; UV-Vis 600 nm scattering); format: physicochemical; conditions: surfactant 0.05% (w/w); 0 min, 30 min, 1 day; compared among Tween 80, CHAPS, sodium deoxycholate
# Method: The size and shape of AAV particles must be maintained constantly from mixing to injection. Therefore, it was analyzed whether the particle size was maintained until after 30 minutes, which is a time taken from mixing to injection, and a sufficient time, one day. To this end, 50 uL of 0.5 mM tannic acid solution was mixed with 1×108 genome/ul AAV solution in which Tween 80 is present in a concentration of 0.01% (w/w) (PBS, pH 7.4), and then, after about 5 minutes, the average particle sizes were measured at 0 min, […], and 1 day, respectively, through a dynamic light scattering method, and the increase in particle sizes was compared with the initial value.
# In addition, 50 uL of 0.5 mM tannic acid solution was mixed with 1×108 genome/ul AAV solution in which various types of surfactants, i.e., Tween 80, CHAPS, and sodium deoxycholate are present in a concentration of 0.05% (w/w) each (PBS, pH 7.4), and then, after about 5 minutes, UV-Vis absorbance of each 600 nm wavelength band was measured at 0 min (min), 30 min, and 1 day (day) to measure the scattering degree. The change in particle size over time was analyzed through an increase in scattering compared to the initial value.
# [5] = tested on: adeno-associated virus serotype 9 (AAV 9); test: AAV stability with albumin alone (DLS, microscope); format: physicochemical; conditions: 0.5 mM tannic acid, about 10 minutes
# Method: 50 uL of 0.5 mM tannic acid solution was mixed with 1×108 genome/ul AAV solution in which the albumin is present at various concentrations of 10%, 1%, 0.1%, 0.01% (w/w) (PBS, pH 7.4), respectively, and after about 10 minutes, the average particle size was measured through dynamic light scattering, and particle formation was observed under a microscope.
# [6] = Viability of mice after tail vein injection of AAV / tannic acid / Tween 80 mixtures; conditions: in vivo
# Description: On the other hand, the presence or absence of the formation of such crystalline particles is one of the major factors affecting the survival of experimental animals in animal experiments. Crystalline particles of more than 10 μm can block capillaries in the body, and clogged blood vessels can cause ischemic disease, myocardial infarction, cerebral infarction, rupture of blood vessels, etc., and in severe cases, leading to death. Therefore, the present inventors tried to experimentally confirm how the crystallinity was confirmed in the results of FIG. 1A affects the survival of mice. To this end, 50 uL of 0.5 mM or 0.25 mM tannic acid solution was mixed with 50 uL of 2×109 genome/ul AAV solution containing Tween 80 in a concentration of 0.01% (w/w) (PBS, pH 7.4), and then viability was confirmed by injecting 100 uL of mixed solution into the tail vein of the mouse within about 30 minutes (0.01% (w/w) Tween 80+0.5 mM TA+AAV/0.01% (w/w) Tween 80+0.25 mM TA+AAV). In addition, as a condition with the absence of surfactant, 50 uL of 2×109 genome/ul AAV solution without Tween 80 was mixed with tannic acid under the same conditions and injected into the tail vein of mice (0.5 mM TA+AAV/0.25 mM TA+AAV). […]
# [7] = surfactant 0.003% (w/w), PBS pH 7.4, about 5 minutes
# [8] = surfactant 0.0125% (w/w), PBS pH 7.4, about 5 minutes
# [9] = surfactant 0.006% (w/w), PBS pH 7.4, about 5 minutes
# [10] = surfactant 0.025% (w/w), PBS pH 7.4, about 5 minutes
# [11] = surfactant 0.4% (w/w), PBS pH 7.4, about 5 minutes
compound,measurement,setting,value
Tween 80,formation of crystalline particles in which AAV was aggregated (microscope),[1],not observed
same,formation of crystals of 10 μm or larger after mixing FBS,[2],crystals are not formed
same,particle / crystal formation,[3]; [7],crystal structure was formed
same,particle / crystal formation,[3]; [8],nano-sized particles
same,particle / crystal formation,"[3]; surfactant 0.2% (w/w), PBS pH 7.4, about 5 minutes",crystal structure was formed
same,"change in particle size over time (increase in scattering, UV-Vis 600 nm)",[4],most stably maintained
albumin,particle / crystal formation,[5]; albumin 0.01% (w/w),crystal structure was formed
same,particle / crystal formation,[5]; albumin 0.1% (w/w),micro-sized particles were formed
same,particle / crystal formation,[5]; albumin 1% (w/w),crystal structure was formed
same,particle / crystal formation,[5]; albumin 10% (w/w),crystal structure was formed
Triton X,formation of crystalline particles in which AAV was aggregated (microscope),[1],not observed
same,particle / crystal formation,"[3]; surfactant 0.0008% (w/w), PBS pH 7.4, about 5 minutes",nano-sized particles were formed
same,particle / crystal formation,[3]; [7],nano-sized particles were formed
same,particle / crystal formation,[3]; [8],crystal structure was formed
same,particle / crystal formation,"[3]; surfactant 0.05% (w/w), PBS pH 7.4, about 5 minutes",crystal structure was formed
"C[C@H](CCC(=O)NCCC[N+](C)(C)CCCS(=O)(=O)[O-])[C@H]1CC[C@H]2[C@@H]3[C@H](O)C[C@@H]4C[C@H](O)CC[C@]4(C)[C@H]3C[C@H](O)[C@]12C [CHAPS, 3-[(3-cholamidopropyl)dimethylammonio]-1-propanesulfonate]",formation of crystalline particles in which AAV was aggregated (microscope),[1],not observed
same,formation of crystals of 10 μm or larger after mixing FBS,[2],crystals are not formed
same,particle / crystal formation,[3]; [9],crystal structure was formed
same,particle / crystal formation,[3]; [10],nano-sized particles were formed
same,particle / crystal formation,"[3]; surfactant 0.1% (w/w), PBS pH 7.4, about 5 minutes",crystal structure was formed
same,particle / crystal formation,[3]; [11],crystal structure was formed
"O=C(OC[C@H]1O[C@@H](OC(=O)c2cc(O)c(O)c(OC(=O)c3cc(O)c(O)c(O)c3)c2)[C@H](OC(=O)c2cc(O)c(O)c(OC(=O)c3cc(O)c(O)c(O)c3)c2)[C@@H](OC(=O)c2cc(O)c(O)c(OC(=O)c3cc(O)c(O)c(O)c3)c2)[C@@H]1OC(=O)c1cc(O)c(O)c(OC(=O)c2cc(O)c(O)c(O)c2)c1)c1cc(O)c(O)c(OC(=O)c2cc(O)c(O)c(O)c2)c1 [TA, tannic acid]",Result (viability of mouse),[6],Survival
"CCCCCCCCCCCCCCCC[N+](C)(C)C.[Br-] [CTAB, cetrimonium bromide]",formation of crystalline particles in which AAV was aggregated (microscope),[1],not observed
same,formation of crystals of 10 μm or larger after mixing FBS,[2],crystals are not formed
same,particle / crystal formation,[3]; [9],crystal structure was formed
same,particle / crystal formation,[3]; [10],nano-sized particles
same,particle / crystal formation,[3]; [11],crystal structure was formed
sodium deoxycholate,formation of crystalline particles in which AAV was aggregated (microscope),[1],large fibrous particles were observed
same,particle / crystal formation,"[3]; all concentrations: 0.2%, 0.05%, 0.0125%, 0.0003% (w/w), PBS pH 7.4",crystal structure was formed

# From patent US20220372498A1, “STABILIZER FOR ADENO-ASSOCIATED VIRUSES AND METHOD FOR STABILIZING ADENO-ASSOCIATED VIRUSES BY USING SAME” (priority 2020, published 2022)
